According to ChEMBL document CHEMBL4311962, “Benzofuran-isatin hybrids and their in vitro anti-mycobacterial activities against multi-drug resistant Mycobacterium tuberculosis” (Eur J Med Chem, 2019):

Columns and labels:
[1] = Cytotoxicity against CHO cells assessed as reduction in cell viability incubated for 72 hrs by MTT assay; type: cell-based, Cricetulus griseus; conditions: chinese hamster
[2] = Metabolic stability in SPF ICR mouse liver microsomes assessed as half life […]; type: ADME, Microsome
[3] = Tmax in SPF ICR mouse at 25 mg/kg, po administered as single dose measured for 0.25 to 24 hrs; type: ADME, organism-based; conditions: in vivo
[4] = AUC (0 to infinity) in SPF ICR mouse at 25 mg/kg, po administered as single dose measured for 0.25 to 24 hrs; type: ADME, organism-based; set-up: dose 25 mg/kg, time infinity, route oral; conditions: in vivo
[5] = Elimination half life in SPF ICR mouse at 25 mg/kg, po administered as single dose measured for 0.25 to 24 hrs; type: ADME, organism-based; conditions: in vivo, read-out: beta t1/2 (converted)
[6] = Cmax in SPF ICR mouse at 25 mg/kg, po administered as single dose measured for 0.25 to 24 hrs; type: ADME, organism-based; set-up: dose 25 mg/kg, route oral; conditions: in vivo

SMILES: CCOC(=O)c1c(-c2ccccc2)oc2ccc(OCCCN3C(=O)/C(=N/O)c4ccccc43)cc12
- CC50 at 72 h [1]: 512 µM

SMILES: CCOC(=O)c1c(-c2ccc(F)cc2)oc2ccc(OCCCCCCN3C(=O)/C(=N/OC)c4ccccc43)cc12
- CC50 at 72 h [1]: 128 µM

SMILES: CNC(=O)c1c(-c2ccc(O)cc2)oc2ccc(O)c(CN3CCCCC3)c12
- CC50 at 72 h [1]: > 1020 µM
- half-life [2]: > 1 h

SMILES: CCOC(=O)c1c(-c2ccc(F)cc2)oc2ccc(OCCCN3C(=O)/C(=N/O)c4ccccc43)cc12
- CC50 at 72 h [1]: 256 µM

SMILES: CCOC(=O)c1c(-c2ccccc2)oc2ccc(OCCCN3C(=O)C(=O)c4cc(OC)ccc43)cc12
- CC50 at 72 h [1]: 512 µM

SMILES: CCOC(=O)c1c(-c2ccc(OC)cc2)oc2ccc(OCCCN3C(=O)C(=O)c4cc(F)ccc43)cc12
- CC50 at 72 h [1]: 64 µM

SMILES: CCOC(=O)c1c(-c2ccc(F)cc2)oc2ccc(OCCCCCCN3C(=O)C(=O)c4cc(OC)ccc43)cc12
- CC50 at 72 h [1]: 256 µM

SMILES: CCOC(=O)c1c(-c2ccccc2)oc2ccc(OCCCN3C(=O)/C(=N/O)c4cc(OC)ccc43)cc12
- CC50 at 72 h [1]: 512 µM

SMILES: CCOC(=O)c1c(-c2ccc(F)cc2)oc2ccc(OCCCN3C(=O)C(=O)c4ccccc43)cc12
- CC50 at 72 h [1]: 256 µM

SMILES: CCOC(=O)c1c(-c2ccc(F)cc2)oc2ccc(OCCCCCCN3C(=O)/C(=N\O)c4cc(OC)ccc43)cc12
- CC50 at 72 h [1]: 512 µM

SMILES: CCOC(=O)c1c(-c2ccc(OC)cc2)oc2ccc(OCCCCCCN3C(=O)/C(=N/NC(N)=S)c4cc(F)ccc43)cc12
- CC50 at 72 h [1]: 128 µM
- half-life [2]: 0.29 h
- Tmax [3]: 1.81 h
- AUC(0-inf) [4]: 3800 ng·h/mL
- half-life [5]: 2.32 h
- Cmax [6]: 2540 ng/mL

SMILES: CCO/N=C1\C(=O)N(CCCCCCOc2ccc3oc(-c4ccc(F)cc4)c(C(=O)OCC)c3c2)c2ccc(OC)cc21
- CC50 at 72 h [1]: 256 µM

SMILES: CCOC(=O)c1c(-c2ccc(F)cc2)oc2ccc(OCCN3C(=O)C(=O)c4cc(OC)ccc43)cc12
- CC50 at 72 h [1]: 512 µM

SMILES: CCOC(=O)c1c(-c2ccccc2)oc2ccc(OCCN3C(=O)C(=O)c4cc(F)ccc43)cc12
- CC50 at 72 h [1]: 64 µM

SMILES: CCOC(=O)c1c(-c2ccccc2)oc2ccc(OCCCCCCN3C(=O)C(=O)c4ccccc43)cc12
- CC50 at 72 h [1]: 128 µM

SMILES: CCOC(=O)c1c(-c2ccc(OC)cc2)oc2ccc(OCCCCN3C(=O)C(=O)c4ccccc43)cc12
- CC50 at 72 h [1]: 256 µM

SMILES: CCOC(=O)c1c(-c2ccc(OC)cc2)oc2ccc(OCCCCCN3C(=O)C(=O)c4ccccc43)cc12
- CC50 at 72 h [1]: 128 µM

SMILES: CCOC(=O)c1c(-c2ccc(F)cc2)oc2ccc(OCCN3C(=O)C(=O)c4ccccc43)cc12
- CC50 at 72 h [1]: 128 µM

SMILES: CCOC(=O)c1c(-c2ccccc2)oc2ccc(OCCCN3C(=O)C(=O)c4ccccc43)cc12
- CC50 at 72 h [1]: 256 µM

SMILES: CCOC(=O)c1c(-c2ccc(F)cc2)oc2ccc(OCCN3C(=O)C(=O)c4cc(F)ccc43)cc12
- CC50 at 72 h [1]: 64 µM

SMILES: NNC(=O)c1ccncc1 [ISONIAZID]
- CC50 at 72 h [1]: 256 µM

SMILES: CO[C@H]1/C=C/O[C@@]2(C)Oc3c(C)c(O)c4c(O)c(c(/C=N/N5CCN(C)CC5)c(O)c4c3C2=O)NC(=O)/C(C)=C\C=C\[C@H](C)[C@H](O)[C@@H](C)[C@@H](O)[C@@H](C)[C@H](OC(C)=O)[C@@H]1C [RIFAMPIN]
- CC50 at 72 h [1]: 512 µM
